Laboratory results taken from ChEMBL document CHEMBL5143607, “Discovery and structure-activity relationships of a novel oxazolidinone class of bacterial type II topoisomerase inhibitors” (Bioorg Med Chem Lett, 2022).
≈ marks a conversion by molar mass, not a printed value.

How the values were obtained:
DNA gyrase = DNA gyrase (Escherichia coli, UniProt P0AES4+P0AES6); assay: Inhibition of Escherichia coli DNA gyrase supercoiling activity; type: protein-complex assay
[1] = Inhibition of Escherichia coli topoisomerase 4 assessed as reduction in decatenation
[2] = Cytotoxicity against human HepG2 cells assessed as reduction in cell viability for 24 hrs by Celltiter-Glo assay; type: toxicity, cell-based
Acinetobacter baumannii [3] = assay: Antibacterial activity against Acinetobacter baumannii NCTC 13420 assessed as bacterial growth inhibition by CLSI protocol based assay; type: functional
Klebsiella pneumoniae [4] = assay: Antibacterial activity against Klebsiella pneumoniae ATCC 700603 assessed as bacterial growth inhibition by CLSI protocol based assay; type: functional
Pseudomonas aeruginosa [5] = assay: Antibacterial activity against Pseudomonas aeruginosa ATCC 27853 assessed as bacterial growth inhibition by CLSI protocol based assay; type: functional
Escherichia coli [6] = assay: Antibacterial activity against Escherichia coli W4573 assessed as bacterial growth inhibition by CLSI protocol based assay; type: functional
Escherichia coli [7] = assay: Antibacterial activity against Escherichia coli N43 assessed as bacterial growth inhibition by CLSI protocol based assay; type: functional
Staphylococcus aureus = assay: Antibacterial activity against Staphylococcus aureus ATCC 29213 assessed as bacterial growth inhibition by CLSI protocol based assay; type: functional
[8] = target: Voltage-gated inwardly rectifying potassium channel KCNH2 (Homo sapiens, UniProt Q12809); assay: Inhibition of human ERG by Ionworks electrophysiology assay; type: toxicity
[9] = Lipophilicity, logD of the compound by shake flask assay; type: physicochemical; conditions: octanol/water
[10] = Intrinsic clearance in mouse liver microsomes in presence of NADPH and measured upto 45 mins; type: ADME, Microsome; conditions: read-out: CLH
[11] = Intrinsic clearance in human liver microsomes in presence of NADPH and measured upto 45 mins; type: ADME, Microsome; conditions: read-out: CLH
[12] = Kinetic solubility of compound; type: physicochemical; conditions: read-out: Kinetic_solubility
[13] = Plasma protein binding in mouse assessed as free fraction by equilibrium dialysis assay; type: ADME, cell-free
[14] = target: DNA topoisomerase 2-alpha (Homo sapiens, UniProt P11388); assay: Inhibition of human topoisomerase 2 assessed as reduction in decatenation
Escherichia coli [15] = assay: Resistance development in Escherichia coli ATCC25922 assessed as spontaneous resistance frequency at 4 times MIC by resistance development assay; type: functional
Escherichia coli [16] = assay: Antibacterial activity against Escherichia coli ATCC25922 assessed as bacterial growth inhibition by CLSI protocol based assay; type: functional
[17] = Protein binding in mouse plasma by equilibrium dialysis assay; type: ADME, cell-free
[18] = Protein binding in human plasma by equilibrium dialysis assay; type: ADME, cell-free; conditions: read-out: PPB (converted)
Acinetobacter baumannii [19] = assay: Antibacterial activity against […] Acinetobacter baumannii clinical isolate 43 assessed as bacterial growth inhibition by CLSI protocol based assay; type: functional
Pseudomonas aeruginosa [20] = assay: Antibacterial activity against Pseudomonas aeruginosa clinical isolate 42 assessed as bacterial growth inhibition by CLSI protocol based assay; type: functional
Enterobacter cloacae = assay: Antibacterial activity against Enterobacter cloacae clinical isolate 41 assessed as bacterial growth inhibition by CLSI protocol based assay; type: functional
Escherichia coli [21] = assay: Antibacterial activity against Escherichia coli clinical isolate 42 assessed as bacterial growth inhibition by CLSI protocol based assay; type: functional
Klebsiella pneumoniae [22] = assay: Antibacterial activity against Klebsiella pneumoniae clinical isolate 42 assessed as bacterial growth inhibition by CLSI protocol based assay; type: functional
Acinetobacter baumannii [23] = assay: In vivo antibacterial activity against multidrug resistant Acinetobacter baumannii NCTC 13420 infected in mouse thigh infection model assessed in reduction in bacterial burden at 30 mg/kg, sc administered at 1 hr post infection and measured after 8 hrs (reference value: 5.4 log10CFU/g); type: functional
Acinetobacter baumannii [24] = assay: In vivo antibacterial activity against multidrug resistant Acinetobacter baumannii NCTC 13420 infected in mouse thigh infection model assessed in reduction in bacterial burden at 45 mg/kg, sc administered at 1 hr post infection and measured after 8 hrs (reference value: 5.4 log10CFU/g); type: functional
Acinetobacter baumannii [25] = assay: In vivo antibacterial activity against multidrug resistant Acinetobacter baumannii NCTC 13420 infected in mouse thigh infection model assessed in reduction in bacterial burden at 60 mg/kg, sc administered at 1 hr post infection and measured after 8 hrs (reference value: 5.4 log10CFU/g); type: functional
Acinetobacter baumannii [26] = assay: In vivo antibacterial activity against multidrug resistant Acinetobacter baumannii NCTC 13420 infected in mouse thigh infection model assessed in reduction in bacterial burden at 120 mg/kg, sc administered at 1 hr post infection and measured after 8 hrs (reference value: 5.4 log10CFU/g); type: functional
Acinetobacter baumannii [27] = assay: In vivo antibacterial activity against multidrug resistant Acinetobacter baumannii NCTC 13420 infected in mouse thigh infection model assessed as log change in bacterial burden at 30 mg/kg, sc administered at 1 hr post infection and measured after 8 hrs relative to control; type: functional
Acinetobacter baumannii [28] = assay: In vivo antibacterial activity against multidrug resistant Acinetobacter baumannii NCTC 13420 infected in mouse thigh infection model assessed as log change in bacterial burden at 45 mg/kg, sc administered at 1 hr post infection and measured after 8 hrs relative to control; type: functional
Acinetobacter baumannii [29] = assay: In vivo antibacterial activity against multidrug resistant Acinetobacter baumannii NCTC 13420 infected in mouse thigh infection model assessed as log change in bacterial burden at 60 mg/kg, sc administered at 1 hr post infection and measured after 8 hrs relative to control; type: functional
Acinetobacter baumannii [30] = assay: In vivo antibacterial activity against multidrug resistant Acinetobacter baumannii NCTC 13420 infected in mouse thigh infection model assessed as log change in bacterial burden at 120 mg/kg, sc administered at 1 hr post infection and measured after 8 hrs relative to control; type: functional
Acinetobacter baumannii [31] = assay: In vivo antibacterial activity against multidrug resistant Acinetobacter baumannii NCTC 13420 infected in mouse thigh infection model assessed in reduction in bacterial burden at 20 mg/kg, iv administered at 1 hr post infection and measured after 8 hrs (reference value: 5.4 log10CFU/g); type: functional
Acinetobacter baumannii [32] = assay: In vivo antibacterial activity against multidrug resistant Acinetobacter baumannii NCTC 13420 infected in mouse thigh infection model assessed as log change in bacterial burden at 20 mg/kg, iv administered at 1 hr post infection and measured after 8 hrs relative to control; type: functional

Chain of DNA topoisomerase 2-alpha (P11388 whole entry): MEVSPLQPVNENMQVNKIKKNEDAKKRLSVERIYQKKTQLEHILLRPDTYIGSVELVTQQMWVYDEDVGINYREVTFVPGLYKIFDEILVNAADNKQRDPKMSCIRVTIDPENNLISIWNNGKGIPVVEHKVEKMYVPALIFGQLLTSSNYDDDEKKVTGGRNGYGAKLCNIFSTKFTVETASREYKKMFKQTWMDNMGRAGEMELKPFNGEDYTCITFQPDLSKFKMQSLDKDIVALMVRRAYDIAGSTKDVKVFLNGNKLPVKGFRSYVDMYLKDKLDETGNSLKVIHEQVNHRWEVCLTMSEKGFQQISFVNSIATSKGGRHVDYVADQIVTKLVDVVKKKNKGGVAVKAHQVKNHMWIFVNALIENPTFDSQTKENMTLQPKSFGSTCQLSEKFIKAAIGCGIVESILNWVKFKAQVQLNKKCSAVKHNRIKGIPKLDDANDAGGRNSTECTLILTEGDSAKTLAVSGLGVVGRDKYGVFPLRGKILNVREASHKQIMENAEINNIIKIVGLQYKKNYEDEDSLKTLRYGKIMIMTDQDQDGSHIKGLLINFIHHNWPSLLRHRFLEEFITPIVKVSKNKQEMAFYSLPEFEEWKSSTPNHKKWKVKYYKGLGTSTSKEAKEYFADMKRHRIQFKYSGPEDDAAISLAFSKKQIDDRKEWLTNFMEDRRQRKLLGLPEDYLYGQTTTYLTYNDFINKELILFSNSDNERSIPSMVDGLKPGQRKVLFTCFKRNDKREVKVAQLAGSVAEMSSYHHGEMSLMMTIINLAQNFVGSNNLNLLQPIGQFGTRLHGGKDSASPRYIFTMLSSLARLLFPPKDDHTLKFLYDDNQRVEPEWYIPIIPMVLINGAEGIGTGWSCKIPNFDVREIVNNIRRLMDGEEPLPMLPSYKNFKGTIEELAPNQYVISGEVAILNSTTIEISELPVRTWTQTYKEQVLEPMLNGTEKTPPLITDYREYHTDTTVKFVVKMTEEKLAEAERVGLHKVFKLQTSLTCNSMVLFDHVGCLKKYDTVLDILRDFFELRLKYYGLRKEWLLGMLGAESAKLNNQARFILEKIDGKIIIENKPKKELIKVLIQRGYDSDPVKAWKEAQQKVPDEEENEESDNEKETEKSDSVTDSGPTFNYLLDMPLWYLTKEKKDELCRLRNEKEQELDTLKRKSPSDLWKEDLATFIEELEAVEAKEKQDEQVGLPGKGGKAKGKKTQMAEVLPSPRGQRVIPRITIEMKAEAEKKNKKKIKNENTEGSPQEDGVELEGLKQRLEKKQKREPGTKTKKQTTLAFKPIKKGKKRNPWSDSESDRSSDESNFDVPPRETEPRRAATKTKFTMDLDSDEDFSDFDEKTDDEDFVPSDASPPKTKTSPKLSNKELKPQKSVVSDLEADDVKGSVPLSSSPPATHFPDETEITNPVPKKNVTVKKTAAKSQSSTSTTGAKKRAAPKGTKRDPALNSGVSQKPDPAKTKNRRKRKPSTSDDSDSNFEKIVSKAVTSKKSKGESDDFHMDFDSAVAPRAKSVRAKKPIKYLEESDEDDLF
Chain of Voltage-gated inwardly rectifying potassium channel KCNH2 (Q12809 whole entry): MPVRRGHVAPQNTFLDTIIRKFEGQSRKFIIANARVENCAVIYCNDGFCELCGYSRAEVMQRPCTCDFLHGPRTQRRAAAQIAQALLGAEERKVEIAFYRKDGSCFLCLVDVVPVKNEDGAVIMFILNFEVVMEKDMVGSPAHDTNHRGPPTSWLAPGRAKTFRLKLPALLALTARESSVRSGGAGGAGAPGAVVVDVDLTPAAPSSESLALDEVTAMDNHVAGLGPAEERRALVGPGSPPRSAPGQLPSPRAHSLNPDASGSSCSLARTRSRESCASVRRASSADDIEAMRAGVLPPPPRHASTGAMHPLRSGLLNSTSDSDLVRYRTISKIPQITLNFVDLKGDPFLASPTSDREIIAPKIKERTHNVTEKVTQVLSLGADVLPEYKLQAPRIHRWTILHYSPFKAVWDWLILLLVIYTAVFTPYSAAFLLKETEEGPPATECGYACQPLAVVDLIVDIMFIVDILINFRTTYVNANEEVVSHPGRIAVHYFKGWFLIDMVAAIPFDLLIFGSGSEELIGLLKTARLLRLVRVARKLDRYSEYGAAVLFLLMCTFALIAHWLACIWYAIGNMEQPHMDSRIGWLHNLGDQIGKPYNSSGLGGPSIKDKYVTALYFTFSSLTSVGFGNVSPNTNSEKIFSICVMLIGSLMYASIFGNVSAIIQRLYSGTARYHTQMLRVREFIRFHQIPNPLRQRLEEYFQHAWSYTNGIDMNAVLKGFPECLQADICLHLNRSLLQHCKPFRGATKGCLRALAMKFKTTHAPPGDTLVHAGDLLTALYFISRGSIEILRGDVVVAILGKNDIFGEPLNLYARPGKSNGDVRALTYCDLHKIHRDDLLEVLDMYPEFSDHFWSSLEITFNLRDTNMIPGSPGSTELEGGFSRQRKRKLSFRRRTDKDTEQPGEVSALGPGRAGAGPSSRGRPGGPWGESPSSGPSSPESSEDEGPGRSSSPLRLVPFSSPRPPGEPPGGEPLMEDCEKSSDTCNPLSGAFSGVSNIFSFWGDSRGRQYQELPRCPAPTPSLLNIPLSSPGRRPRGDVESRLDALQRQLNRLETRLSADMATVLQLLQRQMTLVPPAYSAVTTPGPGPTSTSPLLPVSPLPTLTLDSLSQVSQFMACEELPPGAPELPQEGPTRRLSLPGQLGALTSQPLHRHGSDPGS

Row | SMILES | IC50 (DNA gyrase) [nM] | IC50 [1] [nM] | IC50 at 24 h [2] [µg/mL] | MIC (Acinetobacter baumannii [3]) [µg/mL] | MIC (Klebsiella pneumoniae [4]) [µg/mL] | MIC (Pseudomonas aeruginosa [5]) [µg/mL] | MIC (Escherichia coli [6]) [µg/mL] | MIC (Escherichia coli [7]) [µg/mL] | MIC (Staphylococcus aureus) [µg/mL] | IC50 [8] [µM] | logD [9] | microsomal CLint [10] [µL/min/mg] | IC50 [14] [µM] | Activity (Escherichia coli [15]) | MIC (Escherichia coli [16]) [µg/mL] | MIC90 (Acinetobacter baumannii [19]) [µg/mL] | MIC90 (Pseudomonas aeruginosa [20]) [µg/mL] | MIC90 (Enterobacter cloacae) [µg/mL] | MIC90 (Escherichia coli [21]) [µg/mL] | MIC90 (Klebsiella pneumoniae [22]) [µg/mL] | other results
1 | N#Cc1ccc2ccc(=O)n(CCN[C@H]3CC[C@H]4[C@H](C3)OC(=O)N4c3ccc4c(n3)NC(=O)CO4)c2c1 | 30 | 230 | > 128 | 0.25 (≈ 0.499 µM) | 2 (≈ 4 µM) | 2 (≈ 4 µM) | 0.03 (≈ 0.0599 µM) | ≤ 0.002 | 0.03 (≈ 0.0599 µM) | > 100 | 1.51 | 125 | 72.8 | <7.1 10^-9No_unit | 0.25 (≈ 0.499 µM) | – | – | – | – | – | microsomal CLint [11]: 59 µL/min/mg; solubility kinetic [12]: 62 µM (≈ 31 µg/mL); fraction unbound [13]: > 0.3
2 | COc1ccc2ccc(=O)n(CCN[C@H]3CC[C@H]4[C@H](C3)OC(=O)N4c3ccc4c(n3)NC(=O)CO4)c2n1 | 55 | 10 | > 64 | 0.03 (≈ 0.0592 µM) | 4 (≈ 7.9 µM) | 1 (≈ 1.97 µM) | 0.12 (≈ 0.237 µM) | < 0.008 | 0.008 (≈ 0.0158 µM) | 5 | 1.95 | 264 | 14.4 | <2.4 10^-9No_unit | 0.06 (≈ 0.118 µM) | 0.5 (≈ 0.987 µM) | 4 (≈ 7.9 µM) | 4 (≈ 7.9 µM) | 1 (≈ 1.97 µM) | 4 (≈ 7.9 µM) | PPB [17]: 15.8%; fraction unbound [18]: 0.856; microsomal CLint [11]: 110 µL/min/mg; solubility kinetic [12]: 76 µM (≈ 38.5 µg/mL); Fu [13]: 15%; Activity (Acinetobacter baumannii [23]): 7.1 log10CFU/g; Activity (Acinetobacter baumannii [24]): 6.6 log10CFU/g; Activity (Acinetobacter baumannii [25]): 4.4 log10CFU/g; Activity (Acinetobacter baumannii [26]): 3.9 log10CFU/g; Activity (Acinetobacter baumannii [27]): 1.7 log10CFU/g; Activity (Acinetobacter baumannii [28]): 1.2 log10CFU/g; Activity (Acinetobacter baumannii [29]): -1 log10CFU/g; Activity (Acinetobacter baumannii [30]): -1.5 log10CFU/g
3 | O=c1ccc2ncc(=O)n3c2n1C[C@H]3CN1CCC(NCc2cc3c(cn2)OCCC3)CC1 [GEPOTIDACIN] | – | 35 | > 128 | 16 (≈ 35.7 µM) | 16 (≈ 35.7 µM) | 2 (≈ 4.46 µM) | 0.5 (≈ 1.11 µM) | 0.015 (≈ 0.0334 µM) | 0.5 (≈ 1.11 µM) | > 100 | -0.63 | – | 55.2 | <2 10^-8No_unit | 0.03 (≈ 0.0669 µM) | 32 (≈ 71.3 µM) | 16 (≈ 35.7 µM) | 16 (≈ 35.7 µM) | 4 (≈ 8.92 µM) | 16 (≈ 35.7 µM) | fraction unbound ([17]; read-out: PPB (converted)): < 0.7; fraction unbound [18]: < 0.7
4 | C[C@H]1COc2c(N3CCN(C)CC3)c(F)cc3c(=O)c(C(=O)O)cn1c23.C[C@H]1COc2c(N3CCN(C)CC3)c(F)cc3c(=O)c(C(=O)O)cn1c23.O [LEVOFLOXACIN] | – | – | – | – | – | – | – | – | – | – | – | – | – | – | – | 16 | 32 | 32 | 16 | 16 | –
5 | CN(C)c1cc(NC(=O)CNC(C)(C)C)c(O)c2c1C[C@H]1C[C@H]3[C@H](N(C)C)C(O)=C(C(N)=O)C(=O)[C@@]3(O)C(O)=C1C2=O [TIGECYCLINE] | – | – | – | – | – | – | – | – | – | – | – | – | – | – | – | – | – | – | – | – | Activity (Acinetobacter baumannii [31]): 4.2 log10CFU/g; Activity (Acinetobacter baumannii [32]): -1.2 log10CFU/g
